The results in this text go back to publication PMC6220894 (Food and chemical toxicology : an international journal …, 2018).

As a reminder, the fraction unbound is free concentration divided by total concentration. A lower fraction unbound goes with extensive binding.

Where two headings read alike, the source gives them in different places.

For data set [1], the system named is Salmonella typhimurium TA 102. Nature of the data set: Ames bacterial reverse mutation assay, pre-incubation method. It counts as cell-based.
Data set [2] relates to Salmonella typhimurium TA 1535. It counts as cell-based. Conditions: pre-incubation.
In data set [3] the test system is Salmonella typhimurium TA 102. As to the kind of experiment: Ames bacterial reverse mutation assay, plate incorporation method. The data set is classed as cell-based.
In data set [4] the test system is Salmonella typhimurium TA 100. The data set is classed as cell-based. The note with it: pre-incubation.
Data set [5] has as its system Salmonella typhimurium TA 1535. It counts as cell-based. Conditions: plate incorporation.
In data set [6] the test system is Salmonella typhimurium TA 98. As to the kind of experiment: Ames bacterial reverse mutation assay, pre-incubation method. It counts as cell-based.
Data set [7] concerns Salmonella typhimurium TA 100. The data set is classed as cell-based. The note with it: plate incorporation.
The subject of data set [8] is Salmonella typhimurium TA 98. As to the kind of experiment: Ames bacterial reverse mutation assay, plate incorporation method. The data set is classed as cell-based.
The subject of data set [9] is Salmonella typhimurium TA 1537. As to the kind of experiment: Ames bacterial reverse mutation assay, pre-incubation method. The data set is classed as cell-based.
The subject of data set [10] is Salmonella typhimurium TA 1537. As to the kind of experiment: Ames bacterial reverse mutation assay, plate incorporation method. The data set is classed as cell-based.
The test system of another data set is plasma protein. The note with it: human plasma; 1 µM; mean ± SE.
Another data set in a line: in vitro. Conditions: both, human, plasma, pH 7.4.
The mark [11] stands for this setting: +S9, positive control 0.01 mg/plate.
Where [12] appears, read: +S9, positive control 0.0025 mg/plate.
The mark [13] stands for this setting: −S9, positive control 0.01 mg/plate.
[14] abbreviates: −S9, positive control 0.05 mg/plate.
Where [15] appears, read: −S9, positive control 4 µL/plate.

With `Nc1ccc2cc3ccccc3cc2c1` [2-aminoanthracene, reference compound], the “Mean plate counts (revertant colonies)” value is 1395.3±153.1 in data set [1] (setting [11]); 132.7±9.9 in data set [2] (setting [12]); 1716.7±134.6 in [3] (setting [11]); 1118.0±42.6 in data set [4] (setting [12]); 150.0±12.5 in data set [5] (setting [12]); 958.0±83.6 in data set [6] (setting [12]). Also, the “Mean plate counts (revertant colonies)” value is 1042.0±61.3 in data set [7] (setting [12]), 741.3±63.8 in [8] (setting [12]), 125.0±5.0 in data set [9] (setting [12]) and 133.3±8.1 in data set [10] (setting [12]).
Consider `Nc1ccc([N+](=O)[O-])cc1N` [4-NOPD, 4-nitro-o-phenylenediamine, reference compound], for which the “Mean plate counts (revertant colonies)” value is listed as 674.0±34.7 in data set [6] (setting [13]), 296.0±8.0 in data set [8] (setting [13]), 120.0±12.0 in data set [9] (setting [14]) and 107.0±6.2 in data set [10] (setting [14]).
For the compound `COc1ccc(CCN(C)CCCC(C#N)(c2ccc(OC)c(OC)c2)C(C)C)cc1OC` (stereo not shown) [Verapamil, reference compound], the “fb (bound fraction)” value in the data set with plasma protein is on record as 0.907 ± 0.007.
Regarding `CC(=O)CC(c1ccccc1)c1c(O)c2ccccc2oc1=O` (stereo not shown) [Warfarin, reference compound], in “in vitro”, the fraction unbound at 4 h, 1 µM came to 0.035 ± 0.003.
`COS(C)(=O)=O` [methyl methanesulphonate, methyl methanesulfonate, reference compound]: the “Mean plate counts (revertant colonies)” value is 1238.7±126.0 in data set [1] (setting [15]) and 2510.7±123.6 in data set [3] (setting [15]).
For `[N-]=[N+]=[N-].[Na+]` [sodium azide, reference compound], the “Mean plate counts (revertant colonies)” value worked out at 974.7±41.1 in data set [2] (setting [13]), 1181.3±50.6 in data set [4] (setting [13]), 966.7±12.2 in data set [5] (setting [13]) and 870.7±39.3 in [7] (setting [13]).
